Assays:
in vivo [1] = conditions: rat, iv, 1 mg/kg
Description: Half life in rat at 1 mg/kg, iv

in vivo [2] = conditions: rat, iv, 1 mg/kg; remark: listed apart in the source
Description: Volume of distribution at steady state in rat at 1 mg/kg, iv

in vivo [3] = conditions: rat, po, 1 mg/kg
in vivo [4] = conditions: rat, po, 1 mg/kg; remark: listed apart in the source
in vitro [5] = conditions: human, plasma
Description: Plasma protein binding in human

in vitro [6] = conditions: rat, plasma
Description: Plasma protein binding in rat

in vivo [7] = conditions: Sprague-Dawley, rat, iv, 10 mg/kg
Description: Plasma concentration in anesthetized Sprague-Dawley rat upto 10 mg/kg, iv administered as single dose measured after 30 mins

NCI-H929 = assay: cells; conditions: Homo sapiens, NCI-H929, 24 h
Description: Antiproliferative activity against human NCI-H929 cells assessed as reduction in cell viability incubated for 24 hrs by Cell-Titer Glo assay

| IC50 (NCI-H929) [nM] | Compound | half-life (in vivo [1]) [h] | Vd (in vivo [2]) [L/kg] | AUC (in vivo [3]) [ng·h/mL] | bioavailability (in vivo [4]) [%] | fraction unbound (in vitro [5]) | fraction unbound (in vitro [6]) | concentration at 0.5 h (in vivo [7]) [ng/mL] |
| --- | --- | --- | --- | --- | --- | --- | --- | --- |
| > 10000 | COc1ccc(F)cc1-c1ccnc2[nH]c(C3=CCN(c4ccc(CC(=O)O)cc4)CC3)cc12 |  |  |  |  |  |  |  |
| 170 | COc1ccc(F)cc1-c1ccnc2[nH]c(C3=CCC(N4CCC(C(=O)O)CC4)CC3)cc12 (centres undefined) |  |  |  |  |  |  |  |

More lines, now with the values behind:

| Compound | IC50 (NCI-H929) [nM] | half-life (in vivo [1]) [h] | Vd (in vivo [2]) [L/kg] | AUC (in vivo [3]) [ng·h/mL] | bioavailability (in vivo [4]) [%] | fraction unbound (in vitro [5]) | fraction unbound (in vitro [6]) | concentration at 0.5 h (in vivo [7]) [ng/mL] |
| --- | --- | --- | --- | --- | --- | --- | --- | --- |
| COc1ccc(F)cc1-c1ccnc2[nH]c(C3=CCC(C(=O)O)CC3)cc12 (centres undefined) |  | 2.1 | 0.51 | 3100 | 70 | 0.002 | 0.004 |  |
| COc1ccc(F)cc1-c1ccnc2[nH]c(C3=CCC(N[C@@H](C(=O)O)C(C)C)CC3)cc12 (some centres undefined) |  | 0.68 | 1 | < 10 | 0.2 | 0.023 | 0.057 |  |
| COc1ccc(F)cc1-c1ccnc2[nH]c(C3=CCN([C@H]4CC[C@@H](CC(=O)O)CC4)CC3)cc12 |  | 1.7 | 3.4 | 40 | 7.9 | 0.036 | 0.183 |  |
| COc1ccc(F)cc1-c1ccnc2[nH]c(C3=CCN([C@H]4CC[C@H](CC(=O)O)CC4)CC3)cc12 |  | 2.8 | 4.5 | 160 | 21 | 0.037 | 0.087 |  |
| COc1ccc(F)cc1-c1c(F)cnc2[nH]c(C3=CCN([C@H]4CC[C@H](C(=O)O)CC4)CC3)cc12 |  | 3.5 | 2.7 | 450 | 28 | 0.059 | 0.106 | 9000 |
| CCOC(=O)NS(=O)(=O)N1CC=C(c2cc3c(-c4cc(F)ccc4OC)ccnc3[nH]2)CC1 |  | 1.6 | 0.29 | 2400 | 64 | < 0.001 | 0.042 |  |
| COc1ccc(F)cc1-c1c(F)cnc2[nH]c(C3=CCN([C@H]4CC[C@@H](C(=O)O)CC4)CC3)cc12 |  | 3 | 2.6 | 140 | 13 | 0.066 | 0.099 |  |
| COc1ccc(F)cc1-c1c(F)cnc2[nH]c(C3=CCN([C@H]4CC[C@H](CC(=O)O)CC4)CC3)cc12 |  | 2.8 | 2.9 | 140 | 11 | 0.041 | 0.082 |  |
| COc1ccc(F)cc1-c1ccnc2[nH]c(C3=CCN([C@H]4CC[C@H](C(=O)O)CC4)CC3)cc12 |  | 3.3 | 1.9 | 400 | 23 | 0.079 | 0.09 | 5500 |
| COc1ccc(F)cc1-c1ccnc2[nH]c(C3=CCN([C@H]4CC[C@@H](C(=O)O)CC4)CC3)cc12 |  | 3.2 | 4.7 | 160 | 20 | 0.074 | 0.16 |  |

Source: ChEMBL document CHEMBL4834469, “Balancing Properties with Carboxylates: A Lead Optimization Campaign for Selective and Orally Active CDK9 Inhibitors” (ACS Med Chem Lett, 2021)
